According to patent US20080176913A1, “TRANSDERMAL COMPOSITIONS OF PRAMIPEXOLE HAVING ENHANCED PERMEATION PROPERTIES” (priority 2006, published 2008):
Counter-ions that a name gives are not always drawn. Like-named read-outs stand apart in the source and are kept apart here.

Assays:
[1] = oral administration, daily dose of about 1.5 to 4.5 mg; cited from earlier work

- ionization (at pH of about 8.0): about 97%
- ionization (at pH of about 10.5): about 33%
SMILES: CCCN[C@H]1CCc2nc(N)sc2C1 [pramipexole, (S)-2-amino-4,5,6,7-tetrahydro-6-(propylamino)benzothiazole dihydrochloride monohydrate]
- bioavailability [1]: 90%
